Measured values: ChEMBL document CHEMBL3046160, “Insecticidal Activities of the Enantiomers of Asymmetric 1-[1-(6-Chloro-3-pyridyl)ethyl]-2-nitroiminoimidazolidine against American Cockroach, Cucurbit Leaf Beetle, Green Rice Leafhopper and Green Peach Aphid Following Injection, Dipping and Spraying” (2004)

Assays:
[1] = tested on: Periplaneta americana; assay: Insecticidal activity against Periplaneta americana (American cockroach) compound administered through injection into abdomen; type: functional
[2] = molecular target: T1, Nicotinic acetylcholine receptor alpha 5 subunit (Musca domestica) (UniProt A9XFY4); assay: Displacement of [3H]IMI from Musca domestica (house fly) head membrane nicotinic acetylcholine receptor
T1 sequence (whole entry): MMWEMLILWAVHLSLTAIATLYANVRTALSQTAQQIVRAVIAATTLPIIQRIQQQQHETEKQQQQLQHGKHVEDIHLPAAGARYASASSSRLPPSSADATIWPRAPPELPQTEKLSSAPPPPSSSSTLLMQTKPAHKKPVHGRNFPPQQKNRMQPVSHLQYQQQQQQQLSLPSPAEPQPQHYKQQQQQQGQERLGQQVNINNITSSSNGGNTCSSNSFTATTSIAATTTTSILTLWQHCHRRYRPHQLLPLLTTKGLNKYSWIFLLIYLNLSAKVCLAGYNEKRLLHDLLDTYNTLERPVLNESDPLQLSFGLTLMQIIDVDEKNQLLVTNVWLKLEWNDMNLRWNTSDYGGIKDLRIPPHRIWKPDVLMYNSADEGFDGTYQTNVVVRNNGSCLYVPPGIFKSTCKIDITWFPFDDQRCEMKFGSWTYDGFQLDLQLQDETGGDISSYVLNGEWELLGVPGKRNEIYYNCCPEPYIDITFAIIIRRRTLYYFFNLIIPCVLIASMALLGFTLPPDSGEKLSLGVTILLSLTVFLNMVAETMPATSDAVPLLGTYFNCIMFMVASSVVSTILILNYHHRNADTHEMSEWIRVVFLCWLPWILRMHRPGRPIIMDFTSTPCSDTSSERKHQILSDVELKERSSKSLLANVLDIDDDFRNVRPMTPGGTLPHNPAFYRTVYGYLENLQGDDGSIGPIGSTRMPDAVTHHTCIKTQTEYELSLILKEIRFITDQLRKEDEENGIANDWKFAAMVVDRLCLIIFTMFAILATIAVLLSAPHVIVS

[3] = tested on: Periplaneta americana; assay: Insecticidal activity against Periplaneta americana (American cockroach) compound administered through injection into abdomen in presence of piperonyl butoxide and NIA 16388; type: functional
[4] = tested on: Myzus persicae; assay: Insecticidal activity against Myzus persicae (green peach aphid) in two-leaf stage eggplant assessed as mortality at 1.6 ppm after 7 days; type: functional; details: 168 h
[5] = tested on: Nephotettix cincticeps; assay: Insecticidal activity against Nephotettix cincticeps (green rice leafhopper) in compound-sprayed rice plant assessed as mortality at 1.6 ppm after 2 to 7 days; type: functional
[6] = tested on: Aulacophora; assay: Insecticidal activity against second-instar larvae of Aulacophora femoralis (cucurbit leaf beetle) in compound-treated cucumber leaf assessed as mortality at 1.6 ppm after 2 to 7 days; type: functional
[7] = tested on: Nephotettix cincticeps; assay: Insecticidal activity against Nephotettix cincticeps (green rice leafhopper) in compound-sprayed rice plant assessed as mortality at 8 ppm after 2 to 7 days; type: functional
[8] = tested on: Aulacophora; assay: Insecticidal activity against second-instar larvae of Aulacophora femoralis (cucurbit leaf beetle) in compound-treated cucumber leaf assessed as mortality at 8 ppm after 2 to 7 days; type: functional
[9] = tested on: Musca domestica; assay: Insecticidal activity against Musca domestica (house fly) compound administered through injection in presence of piperonyl butoxide and NIA 16388; type: functional
[10] = tested on: Musca domestica; assay: Insecticidal activity against Musca domestica (house fly) compound administered through injection; type: functional
[11] = tested on: Periplaneta americana; assay: Neuroblocking potency in Periplaneta americana (American cockroach) admoninal central nerve cod; type: functional
[12] = tested on: Myzus persicae; assay: Insecticidal activity against Myzus persicae (green peach aphid) in two-leaf stage eggplant assessed as mortality at 8 ppm after 7 days; type: functional; details: 168 h

Row | Structure (SMILES) | MLD [1] [nmol] | Activity [2] [µM] | MLD [3] [nmol] | mortality at 1.6 ppm [4] [%] | mortality at 1.6 ppm [5] [%] | mortality at 1.6 ppm [6] [%] | mortality at 8 ppm [7] [%] | mortality at 8 ppm [8] [%] | MLD [9] [pmol] | MLD [10] [pmol] | Activity [11] [µM] | mortality at 8 ppm [12] [%]
1 | CN1CCC[C@@H]1c1cccnc1 [R-NICOTINE] | 320 | 422 | 160 |  |  |  |  |  |  |  |  | 
2 | C[C@@H](c1ccc(Cl)nc1)N1CCN/C1=N\[N+](=O)[O-] [(S)-METHYL-IMIDACLOPRID] | 30 | 0.19 | 0.93 | 40 | 90 | 100 | 100 | 100 | 1.1 | 45 | 5.9 | 60
3 | O=[N+]([O-])/N=C1\NCCN1Cc1ccc(Cl)nc1 [IMIDACLOPRID] | 1.1 | 0.02 | 0.07 | 100 | 100 | 100 | 100 | 100 | 0.26 | 2.2 | 2.3 | 100
4 | C[C@H](c1ccc(Cl)nc1)N1CCN/C1=N\[N+](=O)[O-] [(R)-METHYL-IMIDACLOPRID] | 42 | 0.95 | 0.83 | 60 | 100 | 50 | 100 | 90 | 2.3 | 55 | 73 | 90
5 | CN1CCC[C@H]1c1cccnc1 [NICOTINE] | 490 | 11.9 | 310 |  |  |  |  |  |  |  |  | 
